Publication PMC11433573 (Marine Drugs, 2024)
Positions of bridges follow the written chain, without caps; N, C: chain ends. Non-standard residues stand in square brackets, D forms with d. Residues, ends and D or L forms follow the SMILES beside them. Hyp = O=C(O)[C@@H]1C[C@@H](O)CN1

How the values were obtained:
Experiment in all cases: cell-based
rα3β2 nAChR = target: T1, rα3β2 nAChR (Rattus norvegicus, UniProt P04757+P12390); settings: for inhibition at 10 µM: read-out: inhibition of rα3β2 at 10 μM
T1 construct: expressed in transfected cells; host or cells: Xenopus laevis oocytes injected with cRNA
T1 sequence (P04757 26-499): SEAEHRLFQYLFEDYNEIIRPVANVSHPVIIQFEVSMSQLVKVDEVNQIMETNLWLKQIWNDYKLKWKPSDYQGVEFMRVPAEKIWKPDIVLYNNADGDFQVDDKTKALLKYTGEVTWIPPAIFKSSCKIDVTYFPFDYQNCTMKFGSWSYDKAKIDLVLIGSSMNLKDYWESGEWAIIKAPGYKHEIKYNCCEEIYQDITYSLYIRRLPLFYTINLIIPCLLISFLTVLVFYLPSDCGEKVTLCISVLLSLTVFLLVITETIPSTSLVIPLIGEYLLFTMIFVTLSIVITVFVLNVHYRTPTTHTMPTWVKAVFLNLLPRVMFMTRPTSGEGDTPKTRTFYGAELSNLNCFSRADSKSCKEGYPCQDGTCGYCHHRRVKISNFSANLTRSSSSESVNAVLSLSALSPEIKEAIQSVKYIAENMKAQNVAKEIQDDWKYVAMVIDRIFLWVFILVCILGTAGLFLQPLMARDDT
T1 sequence (P12390 25-500): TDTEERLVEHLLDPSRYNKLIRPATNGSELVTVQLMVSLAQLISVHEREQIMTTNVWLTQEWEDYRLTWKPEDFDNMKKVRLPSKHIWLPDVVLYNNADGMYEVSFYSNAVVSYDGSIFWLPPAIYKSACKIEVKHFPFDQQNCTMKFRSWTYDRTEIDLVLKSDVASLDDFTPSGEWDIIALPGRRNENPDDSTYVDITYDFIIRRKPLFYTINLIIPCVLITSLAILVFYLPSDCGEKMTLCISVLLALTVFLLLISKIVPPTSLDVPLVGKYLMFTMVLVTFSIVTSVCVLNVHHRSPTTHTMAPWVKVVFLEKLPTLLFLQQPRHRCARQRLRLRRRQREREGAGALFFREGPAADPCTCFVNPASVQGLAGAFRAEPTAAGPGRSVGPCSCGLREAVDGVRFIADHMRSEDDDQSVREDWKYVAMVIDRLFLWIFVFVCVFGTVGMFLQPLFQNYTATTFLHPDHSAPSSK

rα3β4 nAChR = target: T2, rα3β4 nAChR (Rattus norvegicus, UniProt P04757+P12392); settings: for inhibition at 10 µM: read-out: inhibition of rα3β4 at 10 μM
T2 construct: expressed in transfected cells; host or cells: Xenopus laevis oocytes injected with cRNA
T2 sequence (P04757 26-499): as the sequence (P04757 26-499) above
T2 sequence (P12392 22-495 limits assumed): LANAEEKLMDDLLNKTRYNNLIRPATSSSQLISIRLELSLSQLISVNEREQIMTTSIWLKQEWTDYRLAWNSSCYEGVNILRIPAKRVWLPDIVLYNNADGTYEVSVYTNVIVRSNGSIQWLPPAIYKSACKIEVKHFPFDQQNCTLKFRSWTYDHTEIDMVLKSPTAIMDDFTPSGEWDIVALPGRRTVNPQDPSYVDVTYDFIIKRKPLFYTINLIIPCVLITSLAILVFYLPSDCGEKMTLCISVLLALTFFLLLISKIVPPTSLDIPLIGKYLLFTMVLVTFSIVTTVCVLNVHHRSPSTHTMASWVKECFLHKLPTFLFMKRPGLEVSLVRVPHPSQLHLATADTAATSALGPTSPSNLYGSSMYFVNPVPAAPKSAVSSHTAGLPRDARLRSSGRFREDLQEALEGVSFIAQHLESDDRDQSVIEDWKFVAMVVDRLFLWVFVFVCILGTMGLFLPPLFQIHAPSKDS

rα7 nAChR = target: T3, rα7 nAChR (Rattus norvegicus, UniProt Q05941)
T3 construct: expressed in transfected cells; host or cells: Xenopus laevis oocytes injected with cRNA
T3 sequence (Q05941 23-502): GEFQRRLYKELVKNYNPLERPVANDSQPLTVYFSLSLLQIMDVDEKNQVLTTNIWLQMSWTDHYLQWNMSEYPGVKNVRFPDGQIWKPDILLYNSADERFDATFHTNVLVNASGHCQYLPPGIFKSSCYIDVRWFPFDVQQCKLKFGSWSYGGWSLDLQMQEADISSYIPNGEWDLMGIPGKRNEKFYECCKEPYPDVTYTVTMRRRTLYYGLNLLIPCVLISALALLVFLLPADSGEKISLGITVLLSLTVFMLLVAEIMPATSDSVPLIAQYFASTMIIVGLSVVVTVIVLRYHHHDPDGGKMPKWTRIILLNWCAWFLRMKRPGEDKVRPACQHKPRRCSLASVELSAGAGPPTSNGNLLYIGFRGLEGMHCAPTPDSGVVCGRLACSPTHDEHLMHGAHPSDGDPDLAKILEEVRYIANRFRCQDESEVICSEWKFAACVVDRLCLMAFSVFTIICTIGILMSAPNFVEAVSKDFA

SMILES	IC50 (rα3β2 nAChR) [nM]	IC50 (rα3β4 nAChR) [nM]	IC50 (rα7 nAChR) [nM]	inhibition at 10 µM (rα3β2 nAChR) [%]	inhibition at 10 µM (rα3β4 nAChR) [%]
CC[C@H](C)[C@@H]1NC(=O)[C@H](Cc2cnc[nH]2)NC(=O)[C@@H]2CCCN2C(=O)[C@H](CC(N)=O)NC(=O)[C@H](CC(N)=O)NC(=O)[C@H](C(C)C)NC(=O)[C@H](CC(N)=O)NC(=O)[C@@H]2CSSC[C@H](NC(=O)CN)C(=O)N[C@@H](CSSC[C@@H](C(N)=O)NC1=O)C(=O)N[C@@H](CO)C(=O)N[C@@H](Cc1cnc[nH]1)C(=O)N1CCC[C@H]1C(=O)N[C@@H](C)C(=O)N2 [RegIIA, reference compound] (H-GCCSHPACNVNNPHIC-NH2; disulfide 2-8, 3-16)	36	102	43		
CC[C@H](C)[C@@H]1NC(=O)[C@H](Cc2c[nH]cn2)NC(=O)[C@@H]2CCCN2C(=O)[C@H](CC(N)=O)NC(=O)[C@H](CC(N)=O)NC(=O)[C@H](C(C)C)NC(=O)[C@H](CC(N)=O)NC(=O)[C@@H]2CSSC[C@H](NC(=O)CN)C(=O)N[C@@H](CSSC[C@@H](C(N)=O)NC1=O)C(=O)N[C@@H](CO)C(=O)N[C@@H](Cc1c[nH]cn1)C(=O)N1CCC[C@H]1C(=O)NCC(=O)N2 [[A7G]RegIIA] (H-GCCSHPGCNVNNPHIC-NH2; disulfide 2-8, 3-16)	> 10000	964	600		
CC[C@H](C)[C@@H]1NC(=O)[C@H](Cc2c[nH]cn2)NC(=O)[C@@H]2CCCN2C(=O)[C@H](CC(N)=O)NC(=O)[C@H](CC(N)=O)NC(=O)[C@H](C(C)C)NC(=O)[C@H](CC(N)=O)NC(=O)[C@@H]2CSSC[C@H](NC(=O)[C@H](C)N)C(=O)N[C@@H](CSSC[C@@H](C(N)=O)NC1=O)C(=O)N[C@@H](CO)C(=O)N[C@@H](Cc1c[nH]cn1)C(=O)N1CCC[C@H]1C(=O)N[C@@H](C)C(=O)N2 [[G1A]RegIIA] (H-ACCSHPACNVNNPHIC-NH2; disulfide 2-8, 3-16)	90	132	286		
CC[C@H](C)[C@@H]1NC(=O)[C@H](Cc2c[nH]cn2)NC(=O)[C@@H]2CCCN2C(=O)[C@H](CC(N)=O)NC(=O)[C@H](CC(N)=O)NC(=O)[C@H](C(C)C)NC(=O)[C@H](CC(N)=O)NC(=O)[C@@H]2CSSC[C@H](NC(=O)CN)C(=O)N[C@@H](CSSC[C@@H](C(N)=O)NC1=O)C(=O)N[C@@H](CO)C(=O)N[C@@H](C)C(=O)N1CCC[C@H]1C(=O)N[C@@H](C)C(=O)N2 [[H5A]RegIIA] (H-GCCSAPACNVNNPHIC-NH2; disulfide 2-8, 3-16)	> 10000	> 10000	446	< 50	< 50
CC[C@H](C)[C@@H]1NC(=O)[C@H](Cc2c[nH]cn2)NC(=O)[C@@H]2CCCN2C(=O)[C@H](CC(N)=O)NC(=O)[C@H](CC(N)=O)NC(=O)[C@H](C(C)C)NC(=O)[C@H](CC(N)=O)NC(=O)[C@@H]2CSSC[C@H](NC(=O)CN)C(=O)N[C@@H](CSSC[C@@H](C(N)=O)NC1=O)C(=O)N[C@@H](CO)C(=O)N[C@@H](CCC(=O)O)C(=O)N1CCC[C@H]1C(=O)N[C@@H](C)C(=O)N2 [[H5E]RegIIA] (H-GCCSEPACNVNNPHIC-NH2; disulfide 2-8, 3-16)	> 10000	> 10000	441		
CC[C@H](C)[C@@H]1NC(=O)[C@H](Cc2c[nH]cn2)NC(=O)[C@@H]2CCCN2C(=O)[C@H](CC(N)=O)NC(=O)[C@H](CC(N)=O)NC(=O)[C@H](C(C)C)NC(=O)[C@H](CC(N)=O)NC(=O)[C@@H]2CSSC[C@H](NC(=O)CN)C(=O)N[C@@H](CSSC[C@@H](C(N)=O)NC1=O)C(=O)N[C@@H](CO)C(=O)NCC(=O)N1CCC[C@H]1C(=O)N[C@@H](C)C(=O)N2 [[H5G]RegIIA] (H-GCCSGPACNVNNPHIC-NH2; disulfide 2-8, 3-16)	> 10000	> 10000	3540		
CC[C@H](C)[C@@H]1NC(=O)[C@H](Cc2c[nH]cn2)NC(=O)[C@@H]2CCCN2C(=O)[C@H](CC(N)=O)NC(=O)[C@H](CC(N)=O)NC(=O)[C@H](C(C)C)NC(=O)[C@H](CC(N)=O)NC(=O)[C@@H]2CSSC[C@H](NC(=O)CN)C(=O)N[C@@H](CSSC[C@@H](C(N)=O)NC1=O)C(=O)N[C@@H](CO)C(=O)N[C@@H](CC(C)C)C(=O)N1CCC[C@H]1C(=O)N[C@@H](C)C(=O)N2 [[H5L]RegIIA] (H-GCCSLPACNVNNPHIC-NH2; disulfide 2-8, 3-16)	> 10000	> 10000	> 10000		
CC[C@H](C)[C@@H]1NC(=O)[C@H](Cc2c[nH]cn2)NC(=O)[C@@H]2CCCN2C(=O)[C@H](CC(N)=O)NC(=O)[C@H](CC(N)=O)NC(=O)[C@H](C(C)C)NC(=O)[C@H](CC(N)=O)NC(=O)[C@@H]2CSSC[C@H](NC(=O)CN)C(=O)N[C@@H](CSSC[C@@H](C(N)=O)NC1=O)C(=O)N[C@@H](CO)C(=O)N[C@@H](CO)C(=O)N1CCC[C@H]1C(=O)N[C@@H](C)C(=O)N2 [[H5S]RegIIA] (H-GCCSSPACNVNNPHIC-NH2; disulfide 2-8, 3-16)	> 10000	5730	100		
CC[C@H](C)[C@@H]1NC(=O)[C@H](Cc2c[nH]cn2)NC(=O)[C@@H]2CCCN2C(=O)[C@H](CC(N)=O)NC(=O)[C@H](CC(N)=O)NC(=O)[C@H](C(C)C)NC(=O)[C@H](CC(N)=O)NC(=O)[C@@H]2CSSC[C@H](NC(=O)CN)C(=O)N[C@@H](CSSC[C@@H](C(N)=O)NC1=O)C(=O)N[C@@H](CO)C(=O)N[C@@H](C(C)C)C(=O)N1CCC[C@H]1C(=O)N[C@@H](C)C(=O)N2 [[H5V]RegIIA] (H-GCCSVPACNVNNPHIC-NH2; disulfide 2-8, 3-16)	> 10000	8800	97		
CC[C@H](C)[C@@H]1NC(=O)[C@H](Cc2c[nH]cn2)NC(=O)[C@@H]2CCCN2C(=O)[C@H](CC(N)=O)NC(=O)[C@H](CC(N)=O)NC(=O)[C@H](C(C)C)NC(=O)[C@H](CC(N)=O)NC(=O)[C@@H]2CSSC[C@H](NC(=O)CN)C(=O)N[C@@H](CSSC[C@@H](C(N)=O)NC1=O)C(=O)N[C@@H](CO)C(=O)N[C@@H](Cc1c[nH]cn1)C(=O)N[C@@H](C)C(=O)N[C@@H](C)C(=O)N2 [[P6A]RegIIA] (H-GCCSHAACNVNNPHIC-NH2; disulfide 2-8, 3-16)	> 10000	> 10000	459	< 50	< 50
CC[C@H](C)[C@@H]1NC(=O)[C@H](Cc2c[nH]cn2)NC(=O)[C@@H]2CCCN2C(=O)[C@H](CC(N)=O)NC(=O)[C@H](CC(N)=O)NC(=O)[C@H](C(C)C)NC(=O)[C@H](CC(N)=O)NC(=O)[C@@H]2CSSC[C@H](NC(=O)CN)C(=O)N[C@@H](CSSC[C@@H](C(N)=O)NC1=O)C(=O)N[C@@H](CO)C(=O)N[C@@H](Cc1c[nH]cn1)C(=O)N1C[C@H](O)C[C@H]1C(=O)N[C@@H](C)C(=O)N2 [[P6O]RegIIA] (H-GCCSH[Hyp]ACNVNNPHIC-NH2; disulfide 2-8, 3-16)	> 10000	> 10000	> 10000		
CC[C@H](C)[C@@H]1NC(=O)[C@H](Cc2c[nH]cn2)NC(=O)[C@@H]2CCCN2C(=O)[C@H](CC(N)=O)NC(=O)[C@H](CC(N)=O)NC(=O)[C@H](C(C)C)NC(=O)[C@H](CC(N)=O)NC(=O)[C@@H]2CSSC[C@H](NC(=O)CN)C(=O)N[C@@H](CSSC[C@@H](C(N)=O)NC1=O)C(=O)N[C@@H](C)C(=O)N[C@@H](Cc1c[nH]cn1)C(=O)N1CCC[C@H]1C(=O)N[C@@H](C)C(=O)N2 [[S4A]RegIIA] (H-GCCAHPACNVNNPHIC-NH2; disulfide 2-8, 3-16)	34	95	39		
